Laboratory results reported in the supplement of paper PMC10307832.

compound: C[C@]1(c2nc3c(C(N)=O)cccc3[nH]2)CCCN1 [Veliparib] + Nc1ncn([C@H]2C[C@H](O)[C@@H](CO)O2)c(=O)n1 [Decitabine] (partner 2 µM); test: relative viability (nuclei count vs DMSO), 5 days (fraction); higher = more cells survive; settings: first compound 0.02 µM
Outline: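 Relative viability is defined as nuclei in treated wells over nuclei in vehicle wells. Duplicate plates were run and medians reported. Lung cancer cell lines in 1536-well plates were dosed by pin tool one day after seeding, with one drug or with a fixed anchor-drug dose plus five library-drug doses (not always all listed) in √10 steps, and nuclei were counted after 5 days.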

Compared with PC-14, LXF-289 is higher in relative viability: 0.155 for the first, 0.362 for the second.

Compared with LC-2-ad, NCI-H1651 is lower in relative viability: 0.775 for the first, 0.549 for the second.

Going from HCC-827 to LCLC-103H, the relative viability rises from 0.298 to 0.809.

First: RERF-LC-KJ
Second: NCI-H3122
The relative viability of the first is higher: 0.658 for the first, 0.393 for the second.

Compared with BEN, LCLC-97TM1 is lower in relative viability: 0.572 for the first, 0.205 for the second.

First: NCI-H2085
Second: A-427
The relative viability of the first is lower: 0.519 for the first, 0.557 for the second.

Compared with NCI-H727, NCI-H838 is lower in relative viability: 0.865 for the first, 0.409 for the second.

First: NCI-H1793
Second: 201T
The relative viability of the first is lower: 0.511 for the first, 0.886 for the second.

First: LOU-NH91
Second: NCI-H1666
The relative viability of the first is higher: 0.847 for the first, 0.716 for the second.

First: NCI-H650
Second: ChaGo-K-1
The relative viability of the first is lower: 0.309 for the first, 0.446 for the second.

Compared with HCC-44, NCI-H647 is lower in relative viability: 0.941 for the first, 0.376 for the second.

Going from NCI-H2126 to NCI-H1755, the relative viability rises from 0.575 to 0.675.

Compared with PC-3 [JPC-3], NCI-H1792 is lower in relative viability: 0.766 for the first, 0.463 for the second.

In the case of NCI-H2087, the relative viability is reported as 0.255.

same assay, conditions: first compound 0.06325 µM

Compared with NCI-H358, HCC-78 is higher in relative viability: 0.196 for the first, 0.589 for the second.

First: EKVX
Second: EPLC-272H
The relative viability of the first is higher: 0.319 for the first, 0.312 for the second.

Going from LK-2 to PC-14, the relative viability falls from 0.278 to 0.141.

Going from LXF-289 to LC-2-ad, the relative viability rises from 0.311 to 0.801.

Compared with NCI-H1651, HCC-827 is lower in relative viability: 0.43 for the first, 0.303 for the second.

Going from LCLC-103H to RERF-LC-KJ, the relative viability falls from 0.662 to 0.631.

Compared with NCI-H3122, BEN is higher in relative viability: 0.386 for the first, 0.581 for the second.

First: LCLC-97TM1
Second: NCI-H2085
The relative viability of the first is lower: 0.206 for the first, 0.453 for the second.

First: A-427
Second: NCI-H727
The relative viability of the first is lower: 0.473 for the first, 0.758 for the second.

First: NCI-H838
Second: NCI-H1793
The relative viability of the first is lower: 0.453 for the first, 0.47 for the second.

Compared with 201T, LOU-NH91 is lower in relative viability: 0.844 for the first, 0.785 for the second.

Compared with NCI-H1666, NCI-H650 is lower in relative viability: 0.596 for the first, 0.283 for the second.

Compared with ChaGo-K-1, NCI-H1993 is higher in relative viability: 0.453 for the first, 0.526 for the second.

First: HCC-44
Second: NCI-H647
The relative viability of the first is higher: 0.797 for the first, 0.346 for the second.

Going from NCI-H2126 to NCI-H1755, the relative viability rises from 0.561 to 0.709.

Compared with NCI-H1792, NCI-H2087 is lower in relative viability: 0.381 for the first, 0.244 for the second.

same assay, conditions: first compound 0.2 µM

Going from NCI-H358 to HCC-78, the relative viability rises from 0.181 to 0.603.

Compared with EKVX, EPLC-272H is higher in relative viability: 0.364 for the first, 0.387 for the second.

Going from LK-2 to PC-14, the relative viability falls from 0.273 to 0.135.

Going from LXF-289 to LC-2-ad, the relative viability rises from 0.342 to 0.706.

Compared with NCI-H1651, HCC-827 is lower in relative viability: 0.348 for the first, 0.292 for the second.

Going from LCLC-103H to RERF-LC-KJ, the relative viability falls from 0.667 to 0.607.

First: NCI-H3122
Second: BEN
The relative viability of the first is lower: 0.361 for the first, 0.613 for the second.

Compared with LCLC-97TM1, NCI-H2085 is higher in relative viability: 0.237 for the first, 0.486 for the second.

First: A-427
Second: NCI-H727
The relative viability of the first is lower: 0.593 for the first, 0.856 for the second.

First: NCI-H838
Second: NCI-H1793
The relative viability of the first is lower: 0.408 for the first, 0.445 for the second.

First: 201T
Second: LOU-NH91
The relative viability of the first is higher: 0.795 for the first, 0.792 for the second.

Going from NCI-H1666 to NCI-H650, the relative viability falls from 0.764 to 0.265.

First: ChaGo-K-1
Second: NCI-H1993
The relative viability of the first is lower: 0.411 for the first, 0.614 for the second.

Going from HCC-44 to NCI-H647, the relative viability falls from 0.907 to 0.298.

First: NCI-H2126
Second: NCI-H1755
The relative viability of the first is lower: 0.538 for the first, 0.629 for the second.

Compared with PC-3 [JPC-3], NCI-H1792 is lower in relative viability: 0.85 for the first, 0.397 for the second.

Work on NCI-H2087 yielded a relative viability of 0.237.

same assay, conditions: first compound 0.6325 µM

Going from NCI-H358 to HCC-78, the relative viability rises from 0.156 to 0.517.

Going from EKVX to EPLC-272H, the relative viability falls from 0.338 to 0.331.

Compared with LK-2, PC-14 is lower in relative viability: 0.283 for the first, 0.12 for the second.

Compared with LXF-289, LC-2-ad is higher in relative viability: 0.283 for the first, 0.673 for the second.

Going from NCI-H1651 to HCC-827, the relative viability falls from 0.358 to 0.241.

Compared with LCLC-103H, RERF-LC-KJ is higher in relative viability: 0.705 for the first, 0.72 for the second.

Compared with NCI-H3122, BEN is higher in relative viability: 0.326 for the first, 0.565 for the second.

Compared with LCLC-97TM1, NCI-H2085 is higher in relative viability: 0.208 for the first, 0.48 for the second.

Compared with A-427, NCI-H727 is higher in relative viability: 0.492 for the first, 0.706 for the second.

Compared with NCI-H838, NCI-H1793 is higher in relative viability: 0.32 for the first, 0.429 for the second.

Going from 201T to LOU-NH91, the relative viability falls from 0.795 to 0.782.

First: NCI-H1666
Second: NCI-H650
The relative viability of the first is higher: 0.645 for the first, 0.278 for the second.

Going from ChaGo-K-1 to NCI-H1993, the relative viability rises from 0.439 to 0.541.

Compared with HCC-44, NCI-H647 is lower in relative viability: 0.857 for the first, 0.299 for the second.

Going from NCI-H2126 to NCI-H1755, the relative viability rises from 0.545 to 0.595.

First: PC-3 [JPC-3]
Second: NCI-H1792
The relative viability of the first is higher: 0.763 for the first, 0.263 for the second.

Work on NCI-H2087 yielded a relative viability of 0.2.

same assay, conditions: first compound 2 µM

First: NCI-H358
Second: HCC-78
The relative viability of the first is lower: 0.18 for the first, 0.491 for the second.

First: EKVX
Second: EPLC-272H
The relative viability of the first is lower: 0.294 for the first, 0.393 for the second.

Compared with LK-2, PC-14 is lower in relative viability: 0.225 for the first, 0.109 for the second.

First: LXF-289
Second: LC-2-ad
The relative viability of the first is lower: 0.332 for the first, 0.763 for the second.

First: NCI-H1651
Second: HCC-827
The relative viability of the first is higher: 0.32 for the first, 0.3 for the second.

Compared with LCLC-103H, RERF-LC-KJ is lower in relative viability: 0.714 for the first, 0.674 for the second.

First: NCI-H3122
Second: BEN
The relative viability of the first is lower: 0.395 for the first, 0.624 for the second.

Compared with LCLC-97TM1, NCI-H2085 is higher in relative viability: 0.194 for the first, 0.498 for the second.

Going from A-427 to NCI-H727, the relative viability rises from 0.546 to 0.865.

First: NCI-H838
Second: NCI-H1793
The relative viability of the first is higher: 0.426 for the first, 0.424 for the second.

First: 201T
Second: LOU-NH91
The relative viability of the first is lower: 0.785 for the first, 0.837 for the second.

Going from NCI-H1666 to NCI-H650, the relative viability falls from 0.701 to 0.317.

First: ChaGo-K-1
Second: NCI-H1993
The relative viability of the first is lower: 0.422 for the first, 0.567 for the second.

Compared with HCC-44, NCI-H647 is lower in relative viability: 0.902 for the first, 0.26 for the second.

First: NCI-H2126
Second: NCI-H1755
The relative viability of the first is lower: 0.559 for the first, 0.707 for the second.

Going from PC-3 [JPC-3] to NCI-H1792, the relative viability falls from 0.741 to 0.26.

Work on NCI-H2087 yielded a relative viability of 0.174.
